Experimental data as given in patent US20110172296A1, “MODULATION OF TRANSFORMING GROWTH FACTOR-BETA 1 EXPRESSION” (priority 2010, published 2011).
“And” between values parts separate entries of the source, which are not always exact repeats. Equal entries are not always repeated. e = 2'-O-(2-methoxyethyl) (MOE); d = 2'-deoxy (DNA)

Assays:
human TGF-beta1 mRNA [1] = assay: Antisense inhibition of human TGF-beta1 mRNA in HuVEC cells, single 10 nM dose, Lipofectamine 2000 (Example 2); type: cell-based
How it was run: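 HuVEC cells (5,000/well) transfected with 10 nM 2-13-5 MOE gapmer (phosphorothioate, 5-methylcytosine) via Lipofectamine 2000 for 4 h, then recovered ~24 h. mRNA measured by qRT-PCR, normalized to RIBOGREEN total RNA; percent inhibition versus untreated cells.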

human TGF-beta1 mRNA [2] = assay: Dose-dependent antisense inhibition of human TGF-beta1 in HuVEC cells, Lipofectamine 2000, 0.9375-30 nM (Example 3); type: cell-based; details: Lipofectamine 2000
How it was run: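 HuVEC cells, 5,000/well, were transfected with Lipofectamine 2000 and 0.9375-30 nM antisense oligonucleotide for 4 h, then recovered about 16 h. TGF-beta1 mRNA was quantified by real-time PCR (primer probe set RTS 2980), normalised to RIBOGREEN total RNA, and expressed as percent inhibition versus untreated cells.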

human TGF-beta1 mRNA [3] = assay: Dose-dependent antisense inhibition of human TGF-beta1 in HuVEC cells, Lipofectamine 2000, 0.3292-80 nM, comparison with oligos of U.S. Pat. No. 6,436,909 (Example 4); type: cell-based
How it was run: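 Cells plated at 5,000 per well and transfected with Lipofectamine 2000 using gapmers at 0.3292–80 nM for 4 h, then ~16 h recovery. TGF-beta1 mRNA measured by qRT-PCR (primer probe set RTS 2980), normalised to RIBOGREEN total RNA; percent inhibition relative to untreated cells.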

human TGF-beta1 mRNA [4] = assay: Dose-dependent confirmation of antisense inhibition of human TGF-beta1 in HuVEC cells, electroporation (Example 6); type: cell-based
How it was run: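 Gapmers delivered by electroporation at 0.15625–20 nM for 4 h to HuVEC cells (20,000/well), then ~16 h recovery. TGF-beta1 mRNA quantified by real-time qPCR, normalized to RIBOGREEN total RNA, expressed as percent inhibition versus untreated cells.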

BALB/c mice [5] = assay: Tolerability in BALB/c mice: liver, kidney and spleen weights (Example 8); type: in vivo, mouse
Description: The mice were sacrificed 2 days after the last administration and liver, spleen and kidney weights were measured. Plasma transaminase levels were also evaluated.
The weights of liver, kidney and spleen of the mice were measured after 4 weeks and liver weights are presented in Table 10 as a percentage change compared to the corresponding weights in the PBS control. The percentage changes in kidney and spleen weight in the treated mice compared to the PBS control were negligible and are not shown.

murine TGF-beta1 = assay: Inhibition of murine TGF-beta1 expression (data not shown); set-up: species or system mouse
BALB/c mice [6] = details: mouse, in vivo
Description: (§1) These gapmer oligonucleotides were designed to target human TGF-beta1 and have varying degrees of mismatch with murine TGF-beta1 sequence, as shown in Table 1. Oligo ID Nos. 413982 and 414040 have greater than 3 mismatches to the murine TGF-beta1 sequence. Oligo ID No. 414035 has 2 mismatches to murine TGF-beta1. Oligo ID No. 414036 has no mismatches to murine TGF-beta1.
(§2) BALB/c mice were injected with 25 mg/kg or 50 mg/kg of Oligo ID Nos. 413982, 414035, 414036, or 414040 twice a week for 4 weeks. A control group of mice was injected with phosphate buffered saline (PBS) twice a week for 4 weeks. Plasma transaminase levels were evaluated bi-weekly.
(§3) To evaluate the impact of TGF-beta1 antisense oligonucleotides on the hepatic function of mice described above, plasma concentrations of transaminases were measured using an automated clinical chemistry analyzer (Hitachi Olympus AU400e, Melville, N.Y.).

BALB/c mice [7] = assay: Tolerability in BALB/c mice: plasma transaminases ALT and AST (Example 7); details: for aspartate transaminase levels: plasma
Description: as §1, §2, §3

414036 (antisense GTGTCCTTAAATACAGCCCC; sugars from the 5' end e2 d13 e5, backbone and methylation of C not given here) [compound 414036]
% inhibition (human TGF-beta1 mRNA [1]; 10 nM oligonucleotide, HuVEC, relative to untreated control cells, gapmers targeted to SEQ ID NO: 1): 87%
inhibition of a TGF-beta1 mRNA (human TGF-beta1 mRNA [1]; threshold lists of Oligo IDs, 10 nM): 60% and 65% and 70% and 75% and 80% and 85%
percent inhibition of TGF-beta1 (human TGF-beta1 mRNA [2]; 0.9375 nM): 56%
percent inhibition of TGF-beta1 (human TGF-beta1 mRNA [2]; 1.875 nM): 75%
percent inhibition of TGF-beta1 (human TGF-beta1 mRNA [2]; 3.75 nM): 86%
percent inhibition of TGF-beta1 (human TGF-beta1 mRNA [2]; 7.5 nM): 93%
percent inhibition of TGF-beta1 (human TGF-beta1 mRNA [2]; 15 nM): 95%
percent inhibition of TGF-beta1 (human TGF-beta1 mRNA [2]; 30 nM): 93%
percent inhibition of TGF-beta1 (human TGF-beta1 mRNA [3]; 0.3292 nM): 70%
percent inhibition of TGF-beta1 (human TGF-beta1 mRNA [3]; 0.9877 nM): 83%
percent inhibition of TGF-beta1 (human TGF-beta1 mRNA [3]; 2.963 nM): 91%
percent inhibition of TGF-beta1 (human TGF-beta1 mRNA [3]; 8.8889 nM): 93%
percent inhibition of TGF-beta1 (human TGF-beta1 mRNA [3]; 26.6667 nM): 92%
percent inhibition of TGF-beta1 (human TGF-beta1 mRNA [3]; 80.0 nM): 89%
percent inhibition of TGF-beta1 mRNA relative to untreated control cells (human TGF-beta1 mRNA [4]; 0.15625 nM oligonucleotide): 10%
percent inhibition of TGF-beta1 mRNA relative to untreated control cells (human TGF-beta1 mRNA [4]; 0.3125 nM oligonucleotide): 38%
percent inhibition of TGF-beta1 mRNA relative to untreated control cells (human TGF-beta1 mRNA [4]; 0.625 nM oligonucleotide): 55%
percent inhibition of TGF-beta1 mRNA relative to untreated control cells (human TGF-beta1 mRNA [4]; 1.25 nM oligonucleotide): 74%
percent inhibition of TGF-beta1 mRNA relative to untreated control cells (human TGF-beta1 mRNA [4]; 2.5 nM oligonucleotide): 83%
percent inhibition of TGF-beta1 mRNA relative to untreated control cells (human TGF-beta1 mRNA [4]; 5.00 nM oligonucleotide): 92%
percent inhibition of TGF-beta1 mRNA relative to untreated control cells (human TGF-beta1 mRNA [4]; 10.00 nM oligonucleotide): 94%
percent inhibition of TGF-beta1 mRNA relative to untreated control cells (human TGF-beta1 mRNA [4]; 20 nM oligonucleotide): 92%
Liver % Weight change relative to PBS control (BALB/c mice [5]; 25 mg/kg twice a week for 4 weeks): +17%
Liver % Weight change relative to PBS control (BALB/c mice [5]; 50 mg/kg twice a week for 4 weeks): +35%
increase in liver weight (BALB/c mice [5]; 25 or 50 mg/kg twice a week for 4 weeks, vs PBS control): ≤ 35%
murine TGF-beta1 expression (murine TGF-beta1): inhibits
tolerability compared to Oligo ID 105204 (BALB/c mice [6]): improved tolerability
alanine transaminase levels (BALB/c mice [7]; 25 mg/kg twice a week, Week 2): 70 IU/L
alanine transaminase levels (BALB/c mice [7]; 25 mg/kg twice a week, Week 4): 61 IU/L
aspartate transaminase levels (BALB/c mice [7]; 25 mg/kg twice a week, Week 2): 119 IU/L
aspartate transaminase levels (BALB/c mice [7]; 25 mg/kg twice a week, Week 4): 148 IU/L
alanine transaminase levels (BALB/c mice [7]; 50 mg/kg twice a week, Week 2): 99 IU/L
alanine transaminase levels (BALB/c mice [7]; 50 mg/kg twice a week, Week 4): 190 IU/L
aspartate transaminase levels (BALB/c mice [7]; 50 mg/kg twice a week, Week 2): 183 IU/L
aspartate transaminase levels (BALB/c mice [7]; 50 mg/kg twice a week, Week 4): 467 IU/L
increase in ALT/AST (BALB/c mice [7]; 25 or 50 mg/kg twice a week for four weeks): < 8 fold
